Results as given in PubChem BioAssay (NCI).
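How tested: cells in 96-well plates exposed to compound for 48 hours at five concentrations. GI50: concentration for 50% inhibition of growth. Definition used: TGI = concentration required for complete inhibition of growth.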

Tests used:
Test in all cases: growth of human tumour cells (NCI), 48 h
COLO 205 colon = tested on: COLO 205 colon
HOP-92 NSCLC = tested on: HOP-92 NSCLC
K-562 leukemia = tested on: K-562 leukemia
OVCAR-5 ovarian = tested on: OVCAR-5 ovarian
RXF 393 renal = tested on: RXF 393 renal
SF-268 CNS = tested on: SF-268 CNS
SF-539 CNS = tested on: SF-539 CNS
SK-MEL-5 melanoma = tested on: SK-MEL-5 melanoma
SNB-19 CNS = tested on: SNB-19 CNS
HS 578T breast = tested on: HS 578T breast

| Structure (SMILES) | GI50 (COLO 205 colon) | TGI (COLO 205 colon) | GI50 (HOP-92 NSCLC) | TGI (HOP-92 NSCLC) | GI50 (K-562 leukemia) | TGI (K-562 leukemia) | GI50 (OVCAR-5 ovarian) | TGI (OVCAR-5 ovarian) | GI50 (RXF 393 renal) | TGI (RXF 393 renal) | GI50 (SF-268 CNS) | TGI (SF-268 CNS) | GI50 (SF-539 CNS) | TGI (SF-539 CNS) | GI50 (SK-MEL-5 melanoma) | TGI (SK-MEL-5 melanoma) | GI50 (SNB-19 CNS) | TGI (SNB-19 CNS) | GI50 (HS 578T breast) | TGI (HS 578T breast) |
| --- | --- | --- | --- | --- | --- | --- | --- | --- | --- | --- | --- | --- | --- | --- | --- | --- | --- | --- | --- | --- |
| O=C(Oc1ccccc1)N(c1ccccc1)c1ccccc1 | 19.5 µM | 44.7 µM | 19 µM | 66.9 µM | 25.8 µM | > 100 µM | 45.9 µM | > 100 µM | 25.8 µM | 92.6 µM | 33.1 µM | > 100 µM | 30.4 µM | > 100 µM | 15 µM | 29.9 µM | 40.7 µM | > 100 µM |  |  |
| N#C/C(=C\c1c(O)cc(O)cc1O)C(N)=O |  | > 100 µM |  | > 100 µM |  | > 100 µM |  | > 100 µM |  | > 100 µM |  | > 100 µM |  | > 100 µM |  | > 100 µM |  | > 100 µM |  |  |
| COC(=O)c1c(O)ccc(O)c1C(C(C)=O)C(C)=O |  | > 100 µM |  | > 100 µM |  | > 100 µM |  |  |  | > 100 µM |  | > 100 µM |  | > 100 µM |  | > 100 µM |  | > 100 µM |  |  |
| CC1OC(n2cc(C(F)(F)F)c(=O)[nH]c2=O)C=CC1=O (stereo not given) |  | 35.2 µM |  | 41 µM |  | > 100 µM |  | 33.5 µM |  |  |  | > 100 µM |  | 35.2 µM |  |  |  | 30.6 µM |  |  |
| COc1ccc(CN2C(=O)[C@@H]3Cc4c(OC)c(C)c(OC)c(OC)c4[C@H](/C2=C\c2cc(OC)c(OC)c(C)c2OC)N3C(=O)OC(C)C)cc1 |  | > 100 µM |  | > 100 µM |  | > 100 µM |  | > 100 µM |  | > 100 µM |  | > 100 µM |  | > 100 µM |  | > 100 µM |  | > 100 µM |  |  |
| Cc1ccc2c(c1)-c1c3c(nn1C)-c1ccccc1SC3O2 (stereo not given) |  | > 100 µM |  | > 100 µM |  | > 100 µM |  | > 100 µM |  | > 100 µM |  | > 100 µM |  | > 100 µM |  |  |  |  |  |  |
| CC(=O)OCC1OC(n2cccnc2=O)C(OC(C)=O)C1OC(C)=O (stereo not given) |  | > 100 µM |  | > 100 µM |  | > 100 µM |  | > 100 µM |  | > 100 µM |  | > 100 µM |  |  |  | > 100 µM |  | > 100 µM |  |  |
| COc1ccc(Oc2nc3cc(N)cc(N)c3nc2-c2ccccc2)cc1 | > 100 µM | > 100 µM |  |  | 26.1 µM | > 100 µM | 94.5 µM | > 100 µM | 19.9 µM | 73.9 µM | 20.8 µM | > 100 µM | 23.3 µM | 61.1 µM | 44.6 µM | > 100 µM | 65 µM | > 100 µM | 24.3 µM | > 100 µM |
| O=C1c2ccccc2C(=O)N1CCCOCc1c[nH]c(=O)[nH]c1=O |  | > 100 µM |  | > 100 µM |  | > 100 µM |  | > 100 µM |  | > 100 µM |  | > 100 µM |  | > 100 µM |  | > 100 µM |  | > 100 µM |  |  |
| C=C1C(=O)O[C@H](c2ccoc2)C[C@@H]1[C@@]1(C)CCCC2(C)C(=O)OCC21 (stereo not given in full) |  | > 100 µM |  |  |  | > 100 µM |  | > 100 µM |  | > 100 µM |  | > 100 µM |  | > 100 µM |  | > 100 µM |  | > 100 µM |  |  |
| CC12OC(CC(O)C1O)n1c3ccccc3c3c4c(c5c6ccccc6n2c5c31)C(=O)N(CCN1CCOCC1)C4=O (stereo not given) | 0.606 µM | 4.51 µM | 2.03 µM | 9.4 µM | 1.25 µM | 10.4 µM | 2.32 µM | 9.65 µM | 1.31 µM | 5.03 µM | 1.08 µM | 7.87 µM |  |  | 0.791 µM | 2.87 µM | 1.46 µM | 13.9 µM | 1.92 µM | 10.2 µM |
| CCOC(=O)C1=C(OC(OCC)C([Se]c2ccccc2)C(C)C)CCC1 (stereo not given) |  | 31.7 µM |  | 51.1 µM |  | > 100 µM |  | 59.4 µM |  | 21.9 µM |  | 20 µM |  | 30.8 µM |  | 28.8 µM |  | > 100 µM |  |  |
| CCOC(=O)C1=C(C)NC(=O)NC1c1ccc(OC)cc1OC (stereo not given) |  | > 100 µM |  | > 100 µM |  | > 100 µM |  | > 100 µM |  | > 100 µM |  | > 100 µM |  |  |  | > 100 µM |  | > 100 µM |  |  |
| COc1ccc(Cn2cc(COc3cc(/C=C/C(=O)c4cc(OC)c(OC)c(OC)c4)ccc3OC)nn2)cc1 | 4.36 µM | > 100 µM |  |  | 3.13 µM | > 100 µM |  |  | 2.29 µM | 6.88 µM | 3.75 µM | > 100 µM | 3.02 µM | 12.9 µM | 3.66 µM | 20.5 µM | 5.99 µM | > 100 µM | 7.88 µM | > 100 µM |
| Cc1cccc(C)c1NC(=O)CCC(=O)NC(N)=NC#N |  | > 100 µM |  | > 100 µM |  | > 100 µM |  | > 100 µM |  | > 100 µM |  | > 100 µM |  | > 100 µM |  | > 100 µM |  | > 100 µM |  |  |
| COc1cc(C(=O)/C=C/c2cc(-c3ccc4c(c3)OCO4)n[nH]2)cc(OC)c1OC | 2.08 µM | 4.66 µM |  |  | 2.17 µM | > 100 µM | 2.63 µM | 9.6 µM | 1.31 µM | 2.94 µM | 2.45 µM | 7.64 µM | 1.33 µM | 2.98 µM | 3.32 µM | 13.3 µM | 2.34 µM | 11.7 µM | 3.14 µM | 20.5 µM |
| N#Cc1c2ccccc2c(Cc2ccc3c(c2)OCCOCCOCCOCCOCCO3)c2ccccc12 |  |  |  | 12.2 µM |  | > 100 µM |  | 30.1 µM |  | 7.94 µM |  | 21.1 µM |  | 29.7 µM |  | 17.5 µM |  | 24.5 µM |  |  |
| CN(C)c1ccc(/C=C(\C#N)c2cc3ccccc3[nH]2)cc1 | 0.566 µM | 7.39 µM | 1.42 µM | 5.53 µM |  |  | 3.8 µM | > 100 µM |  |  | 2.52 µM | > 100 µM | 1.97 µM | 35.1 µM | 1.36 µM | 32.8 µM | 2.23 µM | > 100 µM | 1.63 µM | 9.49 µM |
| CC1(C)c2ccccc2N2C(c3ccccc3)=NOC21C (stereo not given) |  | > 100 µM |  | > 100 µM |  | > 100 µM |  | > 100 µM |  | > 100 µM |  | > 100 µM |  | > 100 µM |  | > 100 µM |  | > 100 µM |  |  |
| O=C(NC1CC1)c1c(O)[nH]c(=S)[nH]c1=O |  | > 100 µM |  | > 100 µM |  | > 100 µM |  | > 100 µM |  |  |  | > 100 µM |  | > 100 µM |  | > 100 µM |  | > 100 µM |  |  |
